Broadly, the pIC50 is the IC50 on a negative log10 scale, so that one unit is a factor of ten.

These results are taken from ChEMBL document CHEMBL1155390, “Isolation and biological evaluation of 8-epi-malyngamide C from the Floridian marine cyanobacterium Lyngbya majuscula” (J Nat Prod, 2010).

pIC50: −log10 of the molar value. Active and inactive are the calls of the source. No cut-off for these calls is given here.

Experiment [1] deals with Escherichia coli. Briefly: Inhibition of quorum sensing in Escherichia coli JM109 harboring pSB1075 assessed as suppression of LasR-mediated 3-oxo-C12-HSL signaling at 10 to 1000 uM after 6.5 hrs by reporter gene assay.
The next experiment concerns HT-29. In words: Cytotoxicity against human HT-29 cells after 48 hrs MTT assay. It counts as functional, cell-based. The note with it: HT-29, 48 h. A general note: Tetrazolium dyes change colour on reduction, which living cells bring about.
In experiment [2] the test system is Escherichia coli. Briefly: Antibacterial activity against Escherichia coli JM109 harboring pSB1075 assessed as cell density at 10 to 1000 uM after 6.5 hrs.

As for `CCCCCCC[C@@H](C/C=C/CCC(=O)NC/C(=C/Cl)[C@]12O[C@H]1[C@@H](O)CCC2=O)OC` [MALYNGAMIDE C], the result in the experiment with Escherichia coli [1] was Active. In addition, in the experiment on HT-29, the pIC50 is 5.28. Besides, the result in the experiment on Escherichia coli [2] was inactive.

Consider `CCCCCCC[C@@H](C/C=C/CCC(=O)NC/C(=C/Cl)[C@]12O[C@H]1[C@H](O)CCC2=O)OC`, for which the outcome in the experiment with Escherichia coli [1] was Active. In the experiment with HT-29, this molecule showed a pIC50 of 4.81. In the experiment on Escherichia coli [2], the result was inactive.
